Data taken from US20220403001A1, “PDE5 DERIVED REGULATORY CONSTRUCTS AND METHODS OF USE IN IMMUNOTHERAPY” (Obsidian Therapeutics, Inc., priority 2018, published 2022).
Several values for one entry are separate records, joined by “and”; a condition that tells them apart may be missing. Equal values may be shown once.

How the values were obtained:
hPDE5 mutants [1] = assay: GFP MFI by FACS in HCT116 cells transduced with hPDE5 constructs; assay type: cell-based, human
Method: (§1) Desirable qualities of a DD include, low expression of the SRE in the absence of ligand and ligand dependent stabilization of the SRE. Constructs were generated using DDs linked to GFP using an SG linker. […] The mean fluorescence intensity (MFI) of GFP was analyzed by FACS. […] Destabilizing mutation coefficient less than 1 are desirable.
(§2) Mean fluorescence intensity (MFI) was measured by FACS. […] Destabilizing mutation coefficient ratios less than 1 are desirable.
(§3) Mean fluorescence intensity (MFI) was measured by FACS. […] Destabilizing mutation co-efficient ratios less than 1 are desirable.
(§4) Mean fluorescence intensity (MFI) was measured by FACS. […] Destabilizing mutation coefficient less than 1 are desirable.
as §4
(§5) Mean fluorescence intensity (MFI) of GFP was measured by FACS.
(§6) Mean fluorescence intensity (MFI) was measured by FACS.
(§7) The media containing the ligand was removed and fresh media without the ligand was added.
(§8) The properties of the DDs were analyzed in the presence and absence of ligands via FACS as previously described.
(§9) GFP fluorescence was measured by FACS.
(§10) The properties of the DDs were analyzed via FACS both in the presence and absence of ligands.
as §9

hPDE5 mutants [2] = target: T1, hPDE5 mutants (Homo sapiens, UniProt O76074); assay: as above; assay type: cell-based
Method: as §1, §2, §3, §4, §4, §5, §6, §7, §8, §9, §10, §9

hPDE5 mutants [3] = assay: GFP FACS analysis of hPDE5 mutant library clones in NIH3T3 cell pools
hPDE5 mutants [4] = target: T1, hPDE5 mutants; assay: as above; settings: for Stabilization ratio: GFP intensity 10 μM vardenafil vs DMSO
[5] = GFP intensity ligand treated vs DMSO, direct comparison of clones

OT-001075: hPDE5 wildtype construct, catalytic domain linked to AcGFP, control
MFI DMSO (hPDE5 mutants [1]; GFP, DMSO 48 h, HCT-116): 42973
GFP by FACS, Sildenafil 0 μM (DMSO) (hPDE5 mutants [1]; hotspot constructs, HCT116, DMSO control of Sildenafil): 989
GFP by FACS, Vardenafil 0 μM (DMSO) (hPDE5 mutants [1]; hotspot constructs, HCT116, DMSO control of Vardenafil): 161
Sildenafil Stabilization ratio (hPDE5 mutants [2]; 10 μM, 48 h, HCT-116): 1.25
Vardenafil Stabilization ratio (hPDE5 mutants [2]; 10 μM, 48 h, HCT-116): 1.15
MFI Sildenafil (hPDE5 mutants [2]; GFP, 10 μM Sildenafil 48 h, HCT-116): 53736
MFI Vardenafil (hPDE5 mutants [2]; GFP, 10 μM Vardenafil 48 h, HCT-116): 49344
Vardenafil Stabilization ratio (hPDE5 mutants [2]; hotspot constructs, 1 μM Vardenafil): 1.83
Sildenafil Stabilization ratio (hPDE5 mutants [2]; hotspot constructs, 10 μM Sildenafil): 0.22
GFP by FACS, Sildenafil 10 μM (hPDE5 mutants [2]; hotspot constructs, HCT116): 219
GFP by FACS, Vardenafil 1 μM (hPDE5 mutants [2]; hotspot constructs, HCT116): 294
GFP FACS analysis (MFI) (hPDE5 mutants [3]; DMSO (no ligand), SDF series, experiment 1): 3140
GFP FACS analysis (MFI) (hPDE5 mutants [3]; DMSO (no ligand), TDF series, experiment 1): 9511
GFP FACS analysis (MFI) (hPDE5 mutants [3]; DMSO (no ligand), VDF series, experiment 1): 7545
GFP FACS analysis (MFI) (hPDE5 mutants [3]; SDF 1.235 μM, experiment 1): 5740
Percent stabilization effect (hPDE5 mutants [3]; SDF 1.235 μM, experiment 1): 66.0%
GFP FACS analysis (MFI) (hPDE5 mutants [3]; SDF 3.704 μM, experiment 1): 6480
Percent stabilization effect (hPDE5 mutants [3]; SDF 3.704 μM, experiment 1): 84.7%
GFP FACS analysis (MFI) (hPDE5 mutants [3]; SDF 11.111 μM, experiment 1): 6848
Percent stabilization effect (hPDE5 mutants [3]; SDF 11.111 μM, experiment 1): 94.1%
Percent stabilization effect (hPDE5 mutants [3]; SDF 11.111 μM, experiment 2): 49.7% and 88.2%
GFP FACS analysis (MFI) (hPDE5 mutants [3]; SDF 33.333 μM, experiment 1): 7025
Percent stabilization effect (hPDE5 mutants [3]; SDF 33.333 μM, experiment 1): 98.6%
Percent stabilization effect (hPDE5 mutants [3]; SDF 33.333 μM, experiment 2): 79.3% and 96.0%
Percent stabilization effect (hPDE5 mutants [3]; SDF 100 μM (set as 100%), experiment 1): 100.0%
Percent stabilization effect (hPDE5 mutants [3]; SDF 100 μM (set as 100%), experiment 2): 100.0%
GFP FACS analysis (MFI) (hPDE5 mutants [3]; SDF 100 μM, experiment 1): 7082
GFP FACS analysis (MFI) (hPDE5 mutants [3]; SDF 100 μM, experiment 2): 39638 and 65696
GFP FACS analysis (MFI) (hPDE5 mutants [3]; TDF 1.235 μM, experiment 1): 6211
Percent stabilization effect (hPDE5 mutants [3]; TDF 1.235 μM, experiment 1): −560.3%
GFP FACS analysis (MFI) (hPDE5 mutants [3]; TDF 3.704 μM, experiment 1): 7039
Percent stabilization effect (hPDE5 mutants [3]; TDF 3.704 μM, experiment 1): −419.7%
GFP FACS analysis (MFI) (hPDE5 mutants [3]; TDF 11.111 μM, experiment 1): 7388
Percent stabilization effect (hPDE5 mutants [3]; TDF 11.111 μM, experiment 1): −360.4%
GFP FACS analysis (MFI) (hPDE5 mutants [3]; TDF 11.111 μM, experiment 2): 89646 and 143351
Percent stabilization effect (hPDE5 mutants [3]; TDF 11.111 μM, experiment 2): 101.2% and 136.4%
GFP FACS analysis (MFI) (hPDE5 mutants [3]; TDF 33.333 μM, experiment 1): 7688
Percent stabilization effect (hPDE5 mutants [3]; TDF 33.333 μM, experiment 1): −309.5%
GFP FACS analysis (MFI) (hPDE5 mutants [3]; TDF 33.333 μM, experiment 2): 97813 and 136420
Percent stabilization effect (hPDE5 mutants [3]; TDF 33.333 μM, experiment 2): 110.9% and 123.3%
Percent stabilization effect (hPDE5 mutants [3]; TDF 100 μM (set as 100%), experiment 1): 100.0%
Percent stabilization effect (hPDE5 mutants [3]; TDF 100 μM (set as 100%), experiment 2): 100.0%
GFP FACS analysis (MFI) (hPDE5 mutants [3]; TDF 100 μM, experiment 1): 10100
GFP FACS analysis (MFI) (hPDE5 mutants [3]; TDF 100 μM, experiment 2): 88657 and 124011
GFP FACS analysis (MFI) (hPDE5 mutants [3]; VDF 1.235 μM, experiment 1): 7393
Percent stabilization effect (hPDE5 mutants [3]; VDF 1.235 μM, experiment 1): −3.4%
GFP FACS analysis (MFI) (hPDE5 mutants [3]; VDF 1.235 μM, experiment 2): 32753 and 47543
Percent stabilization effect (hPDE5 mutants [3]; VDF 1.235 μM, experiment 2): 46.3% and 46.8%
GFP FACS analysis (MFI) (hPDE5 mutants [3]; VDF 3.704 μM, experiment 1): 7592
Percent stabilization effect (hPDE5 mutants [3]; VDF 3.704 μM, experiment 1): 1.1%
GFP FACS analysis (MFI) (hPDE5 mutants [3]; VDF 3.704 μM, experiment 2): 36347 and 49859
Percent stabilization effect (hPDE5 mutants [3]; VDF 3.704 μM, experiment 2): 52.0% and 52.6%
GFP FACS analysis (MFI) (hPDE5 mutants [3]; VDF 11.111 μM, experiment 1): 7964
Percent stabilization effect (hPDE5 mutants [3]; VDF 11.111 μM, experiment 1): 9.4%
GFP FACS analysis (MFI) (hPDE5 mutants [3]; VDF 11.111 μM, experiment 2): 39279 and 50082
Percent stabilization effect (hPDE5 mutants [3]; VDF 11.111 μM, experiment 2): 56.6% and 53.2%
GFP FACS analysis (MFI) (hPDE5 mutants [3]; VDF 33.333 μM, experiment 1): 8854
Percent stabilization effect (hPDE5 mutants [3]; VDF 33.333 μM, experiment 1): 29.4%
GFP FACS analysis (MFI) (hPDE5 mutants [3]; VDF 33.333 μM, experiment 2): 44931 and 53578
Percent stabilization effect (hPDE5 mutants [3]; VDF 33.333 μM, experiment 2): 65.5% and 62.0%
Percent stabilization effect (hPDE5 mutants [3]; VDF 100 μM (set as 100%), experiment 1): 100.0%
Percent stabilization effect (hPDE5 mutants [3]; VDF 100 μM (set as 100%), experiment 2): 100.0%
GFP FACS analysis (MFI) (hPDE5 mutants [3]; VDF 100 μM, experiment 1): 12000
GFP FACS analysis (MFI) (hPDE5 mutants [3]; VDF 100 μM, experiment 2): 66821 and 68646
Fold increase in MFI (hPDE5 mutants [3]; after treatment with sildenafil or vardenafil, NIH3T3): ~1.5 fold
Stabilization ratio (hPDE5 mutants [4]; experiment 1): 1.6 and 1.5 and 1.4
Stabilization ratio (hPDE5 mutants [4]; experiment 2): 1.5
Stabilization ratio Sildenafil (hPDE5 mutants [4]; [5]): 1.05
Stabilization ratio Tadalafil (hPDE5 mutants [4]; [5]): 1.50
Stabilization ratio Vardenafil (hPDE5 mutants [4]; [5]): 1.78
Mean fluorescence intensity (MFI) 10 μM VDF (hPDE5 mutants [4]; GFP, cell pools, 10 μM vardenafil 24 hr, experiment 2): 45616 and 43134
Mean fluorescence intensity (MFI) DMSO (hPDE5 mutants [4]; GFP, cell pools, no ligand (DMSO), experiment 2): 30404 and 29006
Fluorescence intensity Sildenafil (hPDE5 mutants [4]; median GFP fluorescence by FACS, 10 μM Sildenafil, direct comparison of clones): 7082
Fluorescence intensity Tadalafil (hPDE5 mutants [4]; median GFP fluorescence by FACS, 10 μM Tadalafil, direct comparison of clones): 10100
Fluorescence intensity Vardenafil (hPDE5 mutants [4]; median GFP fluorescence by FACS, 10 μM Vardenafil, direct comparison of clones): 12000
Fluorescence intensity DMSO (hPDE5 mutants [4]; median GFP fluorescence by FACS, vehicle DMSO (no ligand), direct comparison of clones): 6732
